Experimental data published in ChEMBL document CHEMBL3885881, “DrugMatrix”.

Species on record: Rattus norvegicus
Assay: DrugMatrix - Regimen: Daily Repeat
Format: toxicity, organism-based, Sprague-Dawley
Set-up: regimen Daily Repeat, gender Male, age 6-8 weeks
Details: in vivo, po, route oral GAVAGE, vehicle .5 % CMC; for BASOPHIL / EOSINOPHIL / ERYTHROCYTE COUNT / HEMATOCRIT / HEMOGLOBIN / LEUKOCYTE COUNT / LYMPHOCYTE / MEAN CORPUSCULAR HEMOGLOBIN / MEAN CORPUSCULAR HEMOGLOBIN CONCENTRATION / MEAN CORPUSCULAR VOLUME / MONOCYTE / NEUTROPHIL / PLATELET COUNT: tissue Blood; for ALANINE AMINOTRANSFERASE / ALBUMIN / ALKALINE PHOSPHATASE / ASPARTATE AMINOTRANSFERASE / BLOOD UREA NITROGEN / CHLORIDE / CHOLESTEROL / CREATINE PHOSPHOKINASE / CREATININE / GLUCOSE / PHOSPHORUS / POTASSIUM / SODIUM / TOTAL BILIRUBIN / TOTAL PROTEIN: tissue Plasma
[1] = 0 mg/kg, 72 h, dose level Control, time 3 day
[2] = 0 mg/kg, 120 h, dose level Control, time 5 day
[3] = 5 mg/kg, 72 h, dose level Low, time 3 day
[4] = 5 mg/kg, 120 h, dose level Low, time 5 day

CN1C(=O)CN=C(c2ccccc2)c2cc([N+](=O)[O-])ccc21 [NIMETAZEPAM]
BASOPHIL [1]: 1.52% | EOSINOPHIL [1]: 0.98% | ERYTHROCYTE COUNT [1]: 6.96 x10E6/uL | HEMATOCRIT [1]: 44.65% | HEMOGLOBIN [1]: 13.62 G/DL | LEUKOCYTE COUNT [1]: 9.83 x10E3/uL | LYMPHOCYTE [1]: 76.48% | MEAN CORPUSCULAR HEMOGLOBIN [1]: 19.57 pg | MEAN CORPUSCULAR HEMOGLOBIN CONCENTRATION [1]: 30.47 G/DL | MEAN CORPUSCULAR VOLUME [1]: 64.22 fL | MONOCYTE [1]: 2.13% | NEUTROPHIL [1]: 18.6% | PLATELET COUNT [1]: 1217.17 x10E3/uL | ALANINE AMINOTRANSFERASE [1]: 41 u/L | ALBUMIN [1]: 3.77 G/DL | ALKALINE PHOSPHATASE [1]: 411.83 u/L | ASPARTATE AMINOTRANSFERASE [1]: 62.83 u/L | BLOOD UREA NITROGEN [1]: 15.17 mg/dL | CHLORIDE [1]: 104.33 MEQ/L | CHOLESTEROL [1]: 71.17 mg/dL | CREATINE PHOSPHOKINASE [1]: 123.5 u/L | CREATININE [1]: 0.55 mg/dL | GLUCOSE [1]: 182.67 mg/dL | PHOSPHORUS [1]: 11.23 mg/dL | POTASSIUM [1]: 7.03 MEQ/L | SODIUM [1]: 148 MEQ/L | TOTAL BILIRUBIN [1]: 0.57 mg/dL | TOTAL PROTEIN [1]: 6.85 G/DL | BASOPHIL [2]: 1.35% | EOSINOPHIL [2]: 0.43% | ERYTHROCYTE COUNT [2]: 6.96 x10E6/uL | HEMATOCRIT [2]: 44.35% | HEMOGLOBIN [2]: 13.98 G/DL | LEUKOCYTE COUNT [2]: 9.45 x10E3/uL | LYMPHOCYTE [2]: 80.83% | MEAN CORPUSCULAR HEMOGLOBIN [2]: 20.1 pg | MEAN CORPUSCULAR HEMOGLOBIN CONCENTRATION [2]: 31.52 G/DL | MEAN CORPUSCULAR VOLUME [2]: 63.72 fL | MONOCYTE [2]: 2.37% | NEUTROPHIL [2]: 14.05% | PLATELET COUNT [2]: 1298 x10E3/uL | ALANINE AMINOTRANSFERASE [2]: 42.17 u/L | ALBUMIN [2]: 3.77 G/DL | ALKALINE PHOSPHATASE [2]: 419 u/L | ASPARTATE AMINOTRANSFERASE [2]: 66.67 u/L | BLOOD UREA NITROGEN [2]: 16.67 mg/dL | CHLORIDE [2]: 103.17 MEQ/L | CHOLESTEROL [2]: 66.33 mg/dL | CREATINE PHOSPHOKINASE [2]: 148.33 u/L | CREATININE [2]: 0.58 mg/dL | GLUCOSE [2]: 196.83 mg/dL | PHOSPHORUS [2]: 11.8 mg/dL | POTASSIUM [2]: 6.47 MEQ/L | SODIUM [2]: 148.33 MEQ/L | TOTAL BILIRUBIN [2]: 0.53 mg/dL | TOTAL PROTEIN [2]: 6.77 G/DL | BASOPHIL [3]: 2.83% | EOSINOPHIL [3]: 0.3% | ERYTHROCYTE COUNT [3]: 7.13 x10E6/uL | HEMATOCRIT [3]: 44.5% | HEMOGLOBIN [3]: 13.9 G/DL | LEUKOCYTE COUNT [3]: 11.4 x10E3/uL | LYMPHOCYTE [3]: 76.5% | MEAN CORPUSCULAR HEMOGLOBIN [3]: 19.5 pg | MEAN CORPUSCULAR HEMOGLOBIN CONCENTRATION [3]: 31.2 G/DL | MEAN CORPUSCULAR VOLUME [3]: 62.43 fL | MONOCYTE [3]: 2.87% | NEUTROPHIL [3]: 16.73% | PLATELET COUNT [3]: 1489.33 x10E3/uL | ALANINE AMINOTRANSFERASE [3]: 36.67 u/L | ALBUMIN [3]: 3.67 G/DL | ALKALINE PHOSPHATASE [3]: 291 u/L | ASPARTATE AMINOTRANSFERASE [3]: 57 u/L | BLOOD UREA NITROGEN [3]: 11.67 mg/dL | CHLORIDE [3]: 102.67 MEQ/L | CHOLESTEROL [3]: 68.67 mg/dL | CREATINE PHOSPHOKINASE [3]: 130.67 u/L | CREATININE [3]: 0.5 mg/dL | GLUCOSE [3]: 173 mg/dL | PHOSPHORUS [3]: 11.97 mg/dL | POTASSIUM [3]: 6.37 MEQ/L | SODIUM [3]: 149.67 MEQ/L | TOTAL BILIRUBIN [3]: 0.27 mg/dL | TOTAL PROTEIN [3]: 6.6 G/DL | BASOPHIL [4]: 0.95% | EOSINOPHIL [4]: 2.55% | ERYTHROCYTE COUNT [4]: 7 x10E6/uL | HEMATOCRIT [4]: 43.15% | HEMOGLOBIN [4]: 13.8 G/DL | LEUKOCYTE COUNT [4]: 10.5 x10E3/uL | LYMPHOCYTE [4]: 75.25% | MEAN CORPUSCULAR HEMOGLOBIN [4]: 19.7 pg | MEAN CORPUSCULAR HEMOGLOBIN CONCENTRATION [4]: 32 G/DL | MEAN CORPUSCULAR VOLUME [4]: 61.5 fL | MONOCYTE [4]: 2.15% | NEUTROPHIL [4]: 18.45% | PLATELET COUNT [4]: 1383 x10E3/uL | ALANINE AMINOTRANSFERASE [4]: 34.67 u/L | ALBUMIN [4]: 3.57 G/DL | ALKALINE PHOSPHATASE [4]: 351 u/L | ASPARTATE AMINOTRANSFERASE [4]: 62.67 u/L | BLOOD UREA NITROGEN [4]: 11.67 mg/dL | CHLORIDE [4]: 102.67 MEQ/L | CHOLESTEROL [4]: 62.67 mg/dL | CREATINE PHOSPHOKINASE [4]: 168.67 u/L | CREATININE [4]: 0.6 mg/dL | GLUCOSE [4]: 170.33 mg/dL | PHOSPHORUS [4]: 13 mg/dL | POTASSIUM [4]: 7.1 MEQ/L | SODIUM [4]: 147 MEQ/L | TOTAL BILIRUBIN [4]: 0.4 mg/dL | TOTAL PROTEIN [4]: 6.37 G/DL
